Results published in the supplement of paper PMC4862054.

Each compound was assayed on BT-549 (assay: normalised response (% of control), CellTiter-Glo; higher = more viable cells (100 = DMSO, 0 = benzethonium chloride kill control)). Conditions: incubation time: 72 h.
Outline: (§1)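 Plates were normalised with 0.1 % DMSO as 100 and a positive kill control as 0. Breast cancer cell lines in 20 µl suspension had been seeded into 384-well plates with compound at 5 concentrations in 10-fold steps over a compound-specific 10,000-fold range, incubated 72 h, and read for CellTox Green fluorescence (485/520 nm) followed by CellTiter-Glo luminescence. Each value is the normalised signal at a single concentration.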

In order of falling normalised response:
1. FC(F)c1nc2ccccc2n1-c1nc(N2CCOCC2)nc(N2CCOCC2)n1 [ZSTK474] (1 nM)  104%
2. CS(=O)(=O)CCNCc1ccc(-c2ccc3ncnc(Nc4ccc(OCc5cccc(F)c5)c(Cl)c4)c3c2)o1 [Lapatinib] (0.1 nM)  101%
3. Cc1cc(C(C)Nc2ccccc2)c2nc(N3CCOCC3)cc(=O)n2c1 (stereo unspecified) [TGX-221] (1 nM)  99.4%
4. COC1=C2C[C@@H](C)C[C@H](OC)[C@H](O)[C@@H](C)/C=C(\C)[C@H](OC(N)=O)[C@@H](OC)/C=C\C=C(/C)C(=O)NC(=CC1=O)C2=O [Geldanamycin] (10 nM)  97.3%

What follows are compounds tested on HCC1599 in the same assay as above. Conditions: incubation time: 72 h.
Outline: as §1

In order of rising normalised response:
1. Cc1cc(C(C)Nc2ccccc2)c2nc(N3CCOCC3)cc(=O)n2c1 (stereo unspecified) [TGX-221] (1 nM)  89.6%
2. CS(=O)(=O)CCNCc1ccc(-c2ccc3ncnc(Nc4ccc(OCc5cccc(F)c5)c(Cl)c4)c3c2)o1 [Lapatinib] (0.1 nM)  90.2%
3. COC(=O)C[C@](O)(CCCC(C)(C)O)C(=O)O[C@@H]1C(OC)=C[C@]23CCCN2CCc2cc4c(cc2[C@H]13)OCO4 [Omacetaxine] (10 nM)  92.5%
4. CS(=O)(=O)OCCCCOS(C)(=O)=O [Busulfan] (100 nM)  94.5%
5. COc1ncc(-c2ccc3nccc(-c4ccnnc4)c3c2)cc1NS(=O)(=O)c1ccc(F)cc1F (1 nM)  95.3%
6. C[C@@H]1C=C2C(=O)O[C@@H]3CC[C@H](C1)[C@]23O [Galiellalactone] (50 nM)  98.2%
7. CN(c1ccccc1CNc1nc(Nc2ccc3c(c2)CC(=O)N3)ncc1C(F)(F)F)S(C)(=O)=O (1 nM)  98.4%
8. Cc1cc(C(C)Nc2ccccc2)c2nc(N3CCOCC3)cc(=O)n2c1 (stereo unspecified) [TGX-221] (10 nM)  98.4%
9. Cn1cnc2c(F)c(Nc3ccc(Br)cc3F)c(C(=O)NOCCO)cc21 [MEK-162] (1 nM)  99.7%
10. COC1=C2C[C@@H](C)C[C@H](OC)[C@H](O)[C@@H](C)/C=C(\C)[C@H](OC(N)=O)[C@@H](OC)/C=C\C=C(/C)C(=O)NC(=CC1=O)C2=O [Geldanamycin] (10 nM)  101%
11. FC(F)c1nc2ccccc2n1-c1nc(N2CCOCC2)nc(N2CCOCC2)n1 [ZSTK474] (1 nM)  101%
12. C[C@@H]1CCN(C(=O)CC#N)C[C@@H]1N(C)c1ncnc2[nH]ccc12 [Tofacitinib] (0.5 nM)  102%
13. Cn1c(=O)c(F)c(Nc2ccc(I)cc2F)c2c(=O)n(C[C@@H](O)CO)cnc21 [TAK-733] (1 nM)  102%
14. CC(C)(C)c1cc(NC(=O)Nc2ccc(-c3cn4c(n3)sc3cc(OCCN5CCOCC5)ccc34)cc2)no1 [Quizartinib] (1 nM)  116%
15. CCS(=O)(=O)c1cccc(-c2cc(C(=O)NC3CCN(C)CC3)c(C)c3[nH]c4ncc(C)cc4c23)c1 [TAK-901] (1 nM)  117%

These compounds were tested on HCC1937 in the same assay as above. Conditions: incubation time: 72 h.
Outline: as §1

In order of rising normalised response:
1. CCS(=O)(=O)c1cccc(-c2cc(C(=O)NC3CCN(C)CC3)c(C)c3[nH]c4ncc(C)cc4c23)c1 [TAK-901] (1 nM)  94.2%
2. COc1ncc(-c2ccc3nccc(-c4ccnnc4)c3c2)cc1NS(=O)(=O)c1ccc(F)cc1F (1 nM)  95.3%
3. Cn1cnc2c(F)c(Nc3ccc(Br)cc3F)c(C(=O)NOCCO)cc21 [MEK-162] (1 nM)  96.3%
4. C[C@@H]1CCN(C(=O)CC#N)C[C@@H]1N(C)c1ncnc2[nH]ccc12 [Tofacitinib] (0.5 nM)  97.3%
5. Cc1cc(C(C)Nc2ccccc2)c2nc(N3CCOCC3)cc(=O)n2c1 (stereo unspecified) [TGX-221] (1 nM)  97.6%
6. CS(=O)(=O)OCCCCOS(C)(=O)=O [Busulfan] (100 nM)  97.9%
7. Cn1c(=O)c(F)c(Nc2ccc(I)cc2F)c2c(=O)n(C[C@@H](O)CO)cnc21 [TAK-733] (1 nM)  98.1%
8. Cc1cc(C(C)Nc2ccccc2)c2nc(N3CCOCC3)cc(=O)n2c1 (stereo unspecified) [TGX-221] (10 nM)  98.8%
9. CS(=O)(=O)CCNCc1ccc(-c2ccc3ncnc(Nc4ccc(OCc5cccc(F)c5)c(Cl)c4)c3c2)o1 [Lapatinib] (0.1 nM)  98.8%
10. CN(c1ccccc1CNc1nc(Nc2ccc3c(c2)CC(=O)N3)ncc1C(F)(F)F)S(C)(=O)=O (1 nM)  99.5%
11. COC1=C2C[C@@H](C)C[C@H](OC)[C@H](O)[C@@H](C)/C=C(\C)[C@H](OC(N)=O)[C@@H](OC)/C=C\C=C(/C)C(=O)NC(=CC1=O)C2=O [Geldanamycin] (10 nM)  99.9%
12. COC(=O)C[C@](O)(CCCC(C)(C)O)C(=O)O[C@@H]1C(OC)=C[C@]23CCCN2CCc2cc4c(cc2[C@H]13)OCO4 [Omacetaxine] (10 nM)  100%
13. FC(F)c1nc2ccccc2n1-c1nc(N2CCOCC2)nc(N2CCOCC2)n1 [ZSTK474] (1 nM)  100%
14. CC(C)(C)c1cc(NC(=O)Nc2ccc(-c3cn4c(n3)sc3cc(OCCN5CCOCC5)ccc34)cc2)no1 [Quizartinib] (1 nM)  101%
15. C[C@@H]1C=C2C(=O)O[C@@H]3CC[C@H](C1)[C@]23O [Galiellalactone] (50 nM)  102%

What follows are compounds tested on HCC1143 in the same assay as above. Conditions: incubation time: 72 h.
Outline: as §1

In order of falling normalised response:
1. CS(=O)(=O)OCCCCOS(C)(=O)=O [Busulfan] (100 nM)  112%
2. CC(C)(C)c1cc(NC(=O)Nc2ccc(-c3cn4c(n3)sc3cc(OCCN5CCOCC5)ccc34)cc2)no1 [Quizartinib] (1 nM)  110%
3. COC(=O)C[C@](O)(CCCC(C)(C)O)C(=O)O[C@@H]1C(OC)=C[C@]23CCCN2CCc2cc4c(cc2[C@H]13)OCO4 [Omacetaxine] (10 nM)  109%
4. CCS(=O)(=O)c1cccc(-c2cc(C(=O)NC3CCN(C)CC3)c(C)c3[nH]c4ncc(C)cc4c23)c1 [TAK-901] (1 nM)  108%
5. C[C@@H]1C=C2C(=O)O[C@@H]3CC[C@H](C1)[C@]23O [Galiellalactone] (50 nM)  107%
6. Cn1c(=O)c(F)c(Nc2ccc(I)cc2F)c2c(=O)n(C[C@@H](O)CO)cnc21 [TAK-733] (1 nM)  103%
7. Cc1cc(C(C)Nc2ccccc2)c2nc(N3CCOCC3)cc(=O)n2c1 (stereo unspecified) [TGX-221] (10 nM)  102%
8. COc1ncc(-c2ccc3nccc(-c4ccnnc4)c3c2)cc1NS(=O)(=O)c1ccc(F)cc1F (1 nM)  101%
9. COC1=C2C[C@@H](C)C[C@H](OC)[C@H](O)[C@@H](C)/C=C(\C)[C@H](OC(N)=O)[C@@H](OC)/C=C\C=C(/C)C(=O)NC(=CC1=O)C2=O [Geldanamycin] (10 nM)  101%
10. Cn1cnc2c(F)c(Nc3ccc(Br)cc3F)c(C(=O)NOCCO)cc21 [MEK-162] (1 nM)  99.6%
11. CS(=O)(=O)CCNCc1ccc(-c2ccc3ncnc(Nc4ccc(OCc5cccc(F)c5)c(Cl)c4)c3c2)o1 [Lapatinib] (0.1 nM)  99.2%
12. C[C@@H]1CCN(C(=O)CC#N)C[C@@H]1N(C)c1ncnc2[nH]ccc12 [Tofacitinib] (0.5 nM)  98%
13. FC(F)c1nc2ccccc2n1-c1nc(N2CCOCC2)nc(N2CCOCC2)n1 [ZSTK474] (1 nM)  96.8%
14. Cc1cc(C(C)Nc2ccccc2)c2nc(N3CCOCC3)cc(=O)n2c1 (stereo unspecified) [TGX-221] (1 nM)  93.8%
15. CN(c1ccccc1CNc1nc(Nc2ccc3c(c2)CC(=O)N3)ncc1C(F)(F)F)S(C)(=O)=O (1 nM)  93%

The compounds below were run on CAL-85-1 in the same assay as above. Conditions: incubation time: 72 h.
Outline: as §1

In order of rising normalised response:
1. Cc1cc(C(C)Nc2ccccc2)c2nc(N3CCOCC3)cc(=O)n2c1 (stereo unspecified) [TGX-221] (1 nM)  92.1%
2. FC(F)c1nc2ccccc2n1-c1nc(N2CCOCC2)nc(N2CCOCC2)n1 [ZSTK474] (1 nM)  92.5%
3. CN(c1ccccc1CNc1nc(Nc2ccc3c(c2)CC(=O)N3)ncc1C(F)(F)F)S(C)(=O)=O (1 nM)  94.9%
4. Cn1cnc2c(F)c(Nc3ccc(Br)cc3F)c(C(=O)NOCCO)cc21 [MEK-162] (1 nM)  95.7%
5. CCS(=O)(=O)c1cccc(-c2cc(C(=O)NC3CCN(C)CC3)c(C)c3[nH]c4ncc(C)cc4c23)c1 [TAK-901] (1 nM)  98%
6. CS(=O)(=O)OCCCCOS(C)(=O)=O [Busulfan] (100 nM)  98.1%
7. Cc1cc(C(C)Nc2ccccc2)c2nc(N3CCOCC3)cc(=O)n2c1 (stereo unspecified) [TGX-221] (10 nM)  98.2%
8. Cn1c(=O)c(F)c(Nc2ccc(I)cc2F)c2c(=O)n(C[C@@H](O)CO)cnc21 [TAK-733] (1 nM)  98.3%
9. COC(=O)C[C@](O)(CCCC(C)(C)O)C(=O)O[C@@H]1C(OC)=C[C@]23CCCN2CCc2cc4c(cc2[C@H]13)OCO4 [Omacetaxine] (10 nM)  98.6%
10. COC1=C2C[C@@H](C)C[C@H](OC)[C@H](O)[C@@H](C)/C=C(\C)[C@H](OC(N)=O)[C@@H](OC)/C=C\C=C(/C)C(=O)NC(=CC1=O)C2=O [Geldanamycin] (10 nM)  99.6%
11. COc1ncc(-c2ccc3nccc(-c4ccnnc4)c3c2)cc1NS(=O)(=O)c1ccc(F)cc1F (1 nM)  101%
12. C[C@@H]1C=C2C(=O)O[C@@H]3CC[C@H](C1)[C@]23O [Galiellalactone] (50 nM)  102%
13. CC(C)(C)c1cc(NC(=O)Nc2ccc(-c3cn4c(n3)sc3cc(OCCN5CCOCC5)ccc34)cc2)no1 [Quizartinib] (1 nM)  106%
14. CS(=O)(=O)CCNCc1ccc(-c2ccc3ncnc(Nc4ccc(OCc5cccc(F)c5)c(Cl)c4)c3c2)o1 [Lapatinib] (0.1 nM)  106%
15. C[C@@H]1CCN(C(=O)CC#N)C[C@@H]1N(C)c1ncnc2[nH]ccc12 [Tofacitinib] (0.5 nM)  107%

These compounds were tested on DU-4475 in the same assay as above. Conditions: incubation time: 72 h.
Outline: as §1

In order of falling normalised response:
1. C[C@@H]1CCN(C(=O)CC#N)C[C@@H]1N(C)c1ncnc2[nH]ccc12 [Tofacitinib] (0.5 nM)  117%
2. CS(=O)(=O)OCCCCOS(C)(=O)=O [Busulfan] (100 nM)  109%
3. CCS(=O)(=O)c1cccc(-c2cc(C(=O)NC3CCN(C)CC3)c(C)c3[nH]c4ncc(C)cc4c23)c1 [TAK-901] (1 nM)  108%
4. CC(C)(C)c1cc(NC(=O)Nc2ccc(-c3cn4c(n3)sc3cc(OCCN5CCOCC5)ccc34)cc2)no1 [Quizartinib] (1 nM)  104%
5. COc1ncc(-c2ccc3nccc(-c4ccnnc4)c3c2)cc1NS(=O)(=O)c1ccc(F)cc1F (1 nM)  103%
6. Cc1cc(C(C)Nc2ccccc2)c2nc(N3CCOCC3)cc(=O)n2c1 (stereo unspecified) [TGX-221] (10 nM)  97.9%
7. CN(c1ccccc1CNc1nc(Nc2ccc3c(c2)CC(=O)N3)ncc1C(F)(F)F)S(C)(=O)=O (1 nM)  95.9%
